For test [1], the system named is HT29 cells. Description: Anti-proliferative activity, AlamarBlue assay, HT29 cells. The format is cell-based, human. Particulars: for % inhibition compared to SN38 / inhibition at 33.3 µM: HT29 cells; for % inhibition compared to SN38: highest concentration tested, 100 μM; for IC50: HT29 human colorectal adenocarcinoma cells, 48-72 hours with compound, AlamarBlue, sigmoidal logistic regression curve, read-out: IC50 of anti-proliferative drugs in HT29 cells; for inhibition at 33.3 µM: Homo sapiens. The method, then: (§1) Human colorectal adenocarcinoma cell lines HT29 and SW620, as well as murine colon carcinoma cell line CT26, were purchased from the American Type Culture Collection (ATCC) and grown in either Dulbecco's Modified Eagle Medium (DMEM) or Roswell Park Memorial Institute (RPMI) medium from Corning and Life Technologies, respectively. These media were supplemented with 10% fetal bovine serum (FBS, Atlanta Biologicals), as well as 1 mM sodium pyruvate (Corning) and 10 mM HEPES (Fisher) for CT26 cells. Cells were grown in Corning 75 cm^2 flasks and split approximately 6 days before plating, with a refeed of fresh media the day prior to plating. Anti-proliferative drugs 2, 3 and SN38, were reconstituted in DMSO for storage at −20° C. until use. AlamarBlue, a colorimetric cell metabolism reagent, was purchased from Life Technologies.
To qualify AlamarBlue incubation time and required cell density, cells were plated into flat bottom 96 well plates (Techno Plastic Products, Trasadingen, Switzerland) at plating densities from 4×10^4 to 1.25×10^3 cells per well. The cells were incubated at 37° C. inside a Nu-Aire TS Autoflow incubator with 5% CO2 and humidity for 48-72 hours, AlamarBlue reagent was then added to all wells, equivalent to 10% of the culture volume or 20 μL. The plates were returned to the 37° C. incubator, and the absorbance at 570 and 600 nm were assessed using a Bio-Tek Epoch microplate reader at 1, 2, 4, 7 and in some experiment 24 hours post addition of AlamarBlue. Once the optimum cell density and incubation time was determined for each cell line, testing of the anti-proliferative drugs on the cells was initiated. For each cell line, cells were plated at 5×10^3 cells per well and incubated at 37° C. for 24 hours, at which time the anti-proliferative compounds were added. […] Aliquots of anti-proliferatives were thawed, diluted in media appropriate for each cell line, and serially diluted 1:3. A serial pipetter, was used to deliver 100 μl of each concentration of anti-proliferative compound to the appropriate wells in triplicate, the plate was tapped gently to mix, and then incubated at 37° C. for 48-72 hours. Control wells containing media alone and media with an equal percentage of DMSO in comparison to the initial anti-proliferative dilution were also established in each plate. After a minimum of 48 hours of incubation, 20 μl of AlamarBlue was added to each experimental well as well as the negative control wells. AlamarBlue positive control wells, containing 200 μl of 100% reduced AlamarBlue, were also established to provide a colorimetric endpoint reference for the assay. After addition of AlamarBlue, plates were incubated for 4 hours at 37° C. and absorbance assessed using the Epoch microplate reader. Absorbances were used to calculate the % inhibition for each well using the following equation, where O1 is the molar extinction coefficient of oxidized AlamarBlue at 570 nm (80586), O2 is the molar extinction coefficient of oxidized AlamarBlue at 600 nm (117216), A1 is the absorbance of the test wells at 570 nm, A2 is the absorbance of the test wells at 600 nm, P1 is the absorbance of the control wells with AlamarBlue but without test agent at 570, and P2 is the absorbance of the control wells with AlamarBlue but without the test agent at 600. % difference between=(O2×A1)−(O1×A2)×100treated and untreated cells (O2×P1)−(O1×P2)
(§2) The dose response data generated by these values was used to calculate the half maximal inhibitory concentration (IC50) using a regression curve (3 or 4 parameter logistic sigmoidal curve or sigmoidal sigmoid curve) in Sigma Plot, version 12.5. Statistical differences were calculated using SPSS Statistics software, version 17.0, using the independent t-test with an α of 0.05. […]
A general note: Resazurin is reduced to fluorescent resorufin, in cell work by metabolically active cells.

Test [2] has as its system CT26 cells. The experiment in a line: Anti-proliferative activity, AlamarBlue assay, CT26 cells. The following applies: CT26 murine colon carcinoma cells, 48-72 hours with compound, 4 parameter regression curve, read-out: IC50 of anti-proliferative drugs in CT26 cells. Type of test: cell-based. The procedure:
as §1
To qualify AlamarBlue incubation time and required cell density, cells were plated into flat bottom 96 well plates (Techno Plastic Products, Trasadingen, Switzerland) at plating densities from 4×10^4 to 1.25×10^3 cells per well. […] The plates were returned to the 37° C. incubator, and the absorbance at 570 and 600 nm were assessed using a Bio-Tek Epoch microplate reader at 1, 2, 4, 7 and in some experiment 24 hours post addition of AlamarBlue. Once the optimum cell density and incubation time was determined for each cell line, testing of the anti-proliferative drugs on the cells was initiated. […] After addition of AlamarBlue, plates were incubated for 4 hours at 37° C. and absorbance assessed using the Epoch microplate reader. […]
as §2

Test [3] deals with SW620 cells. The experiment in a line: Anti-proliferative activity, AlamarBlue assay, SW620 cells. Particulars: for IC50: SW620 human colorectal adenocarcinoma cells, 48-72 hours with compound, AlamarBlue, sigmoidal regression curve, read-out: IC50 of anti-proliferative drugs in SW620 cells. Type of test: cell-based, human. The method, then: as §1
To qualify AlamarBlue incubation time and required cell density, cells were plated into flat bottom 96 well plates (Techno Plastic Products, Trasadingen, Switzerland) at plating densities from 4×10^4 to 1.25×10^3 cells per well. The cells were incubated at 37° C. inside a Nu-Aire TS Autoflow incubator with 5% CO2 and humidity for 48-72 hours, AlamarBlue reagent was then added to all wells, equivalent to 10% of the culture volume or 20 μL. The plates were returned to the 37° C. incubator, and the absorbance at 570 and 600 nm were assessed using a Bio-Tek Epoch microplate reader at 1, 2, 4, 7 and in some experiment 24 hours post addition of AlamarBlue. Once the optimum cell density and incubation time was determined for each cell line, testing of the anti-proliferative drugs on the cells was initiated. […] After addition of AlamarBlue, plates were incubated for 4 hours at 37° C. and absorbance assessed using the Epoch microplate reader. Absorbances were used to calculate the % inhibition for each well using the following equation, where O1 is the molar extinction coefficient of oxidized AlamarBlue at 570 nm (80586), O2 is the molar extinction coefficient of oxidized AlamarBlue at 600 nm (117216), A1 is the absorbance of the test wells at 570 nm, A2 is the absorbance of the test wells at 600 nm, P1 is the absorbance of the control wells with AlamarBlue but without test agent at 570, and P2 is the absorbance of the control wells with AlamarBlue but without the test agent at 600. % difference between=(O2×A1)−(O1×A2)×100treated and untreated cells (O2×P1)−(O1×P2)
as §2

Read-outs that look alike come from different tables or passages of the source.

A word on the IC50: it is the concentration needed to halve the response being measured. By inhibition is commonly meant the percentage by which the read-out fell short of the control. Low values mean little suppression, high ones strong suppression.

Take `CCCCC(=O)O[C@]1(CC)C(=O)OCc2c1cc1n(c2=O)Cc2c-1nc1ccc(O)cc1c2CC` [Compound 2]: the “% inhibition compared to SN38” value in test [1] is given as “not significantly different from SN38”. Moreover, the IC50 was 5.6 µM in test [1] (HT-29), 18 µM in test [2] (Mus musculus) and 1.9 µM in test [3] (SW-620). For the same molecule, the inhibition at 33.3 µM in test [1] (HT-29) is more than 54%.

Regarding `CCc1c2c(nc3ccc(O)cc13)-c1cc3c(c(=O)n1C2)COC(=O)[C@]3(O)CC` [SN38, reference compound], the IC50 in test [1] was 0.2 µM; in test [2], 0.6 µM; in test [3], 0.7 µM. Besides, the “% inhibition” value in test [3] (SW620 cells, throughout all concentrations tested (100 μM to 0.4 μM)) is “over 55%”.

In the case of `CCCCCCCCCCCCCC(=O)O[C@]1(CC)C(=O)OCc2c1cc1n(c2=O)Cc2c-1nc1ccc(O)cc1c2CC` [Compound 3], in test [1], the “% inhibition compared to SN38” value is “not significantly different from SN38”. Besides, the half-inhibitory concentration (IC50) in test [1] (HT-29) was found to be 17.1 µM; in test [2] (Mus musculus), 14.2 µM; in test [3] (SW-620) it was 10.3 µM. Further, in test [1] (HT-29), the inhibition at 33.3 µM is more than 54%.

(Values after patent US10407437B2, “Camptothecin derivatives and uses thereof” (Los Gatos Pharmaceuticals, Inc., priority 2016, dated 2019).)
